Assay results taken from patent US20230143604A1, “QW DOSING OF GIP RECEPTOR AGONIST PEPTIDE COMPOUNDS AND USES THEREOF” (TAKEDA PHARMACEUTICAL COMPANY LIMITED, priority 2020, published 2023).
Starred links: 1 amine or outer side, 2 acyl side, 3 side chain; linkers in the order of their positions; H or OH if unused. Non-standard residues stand in square brackets, D forms with d. Residues, ends and D or L forms follow the SMILES beside them. Groups on a side chain read outwards from the residue. *: point of attachment. C18 diacid = O=C(O)CCCCCCCCCCCCCCCCC(=O)*; C17 diacid = O=C(O)CCCCCCCCCCCCCCCC(=O)*; γGlu = O=C(O)[C@H](CCC(=O)[*:2])N[*:1]; NMeY = CN[C@@H](Cc1ccc(O)cc1)C(=O)O; AEEA = NCCOCCOCC(=O)O; Aib = CC(C)(N)C(=O)O

Assay: Solubility in phosphate buffer pH 7.4
Experimental: Solubility of the GIPR peptides may be determined by dissolution in a phosphate buffer followed by quantitation using liquid chromatography, for example, High Performance Liquid Chromatogry (HPLC). An illustrative method is provided. For determination of the solubility of the GIPr agonist peptides, 3 mg of peptides are weighted out in a small glass vial. 100 μL of 200 mM Phosphate buffer pH 7.4 are added and the vial is sonicated/votexed as necessary for a maximum of 1 min. […] If insoluble material is observed in the tube the addition of 100 μL of buffer and mixing is repeated until complete dissolution.
3 mg of peptides are weighted out in a small glass vial. 100 uL of 200 mM Phosphate buffer pH 7.4 are added and the vial is sonicated/votexed as necessary for a maximum of 1 min. […] If insoluble material is observed in the tube the addition of 100 uL of buffer and mixing is repeated until complete dissolution.

[1] = pH 7.4, aqueous buffer, pH 7.4 Phosphate Buffer - Solubility, 200 mM Phosphate buffer pH 7.4
[2] = pH 7.4, solubility in phosphate buffer at pH 7.4, 200 mM phosphate buffer pH 7.4

Question: With `CC[C@H](C)[C@H](NC(=O)[C@H](CO)NC(=O)[C@H](Cc1ccc(O)cc1)NC(=O)[C@H](CC(=O)O)NC(=O)[C@H](CO)NC(=O)[C@@H](NC(=O)[C@H](Cc1ccccc1)NC(=O)[C@@H](NC(=O)CNC(=O)[C@H](CCC(=O)O)NC(=O)C(C)(C)NC(=O)[C@H](Cc1ccc(O)cc1)NC)[C@@H](C)O)[C@@H](C)CC)C(=O)N[C@@H](C)C(=O)N[C@@H](CCCCNC(=O)CC[C@H](NC(=O)CC[C@H](NC(=O)CC[C@H](NC(=O)CCCCCCCCCCCCCCCC(=O)O)C(=O)O)C(=O)O)C(=O)O)C(=O)N[C@@H](CC(=O)O)C(=O)N[C@@H](CCCNC(=N)N)C(=O)NC(C)(C)C(=O)N[C@@H](C)C(=O)N[C@@H](CCC(N)=O)C(=O)NC(C)(C)C(=O)N[C@@H](CC(N)=O)C(=O)N[C@@H](Cc1ccccc1)C(=O)N[C@H](C(=O)N[C@@H](CC(N)=O)C(=O)N[C@@H](Cc1c[nH]c2ccccc12)C(=O)N[C@@H](CC(C)C)C(=O)N[C@@H](CC(C)C)C(=O)N[C@@H](C)C(=O)N[C@@H](CCC(N)=O)C(=O)N[C@@H](CO)C(=O)N1CCC[C@H]1C(=O)N[C@@H](CO)C(=O)N[C@@H](CO)C(=O)NCC(=O)N[C@@H](C)C(=O)N1CCC[C@H]1C(=O)N1CCC[C@H]1C(=O)N1CCC[C@H]1C(=O)N[C@@H](CO)C(N)=O)C(C)C` [Compound 12] (H-[NMeY][Aib]EGTFISDYSIAK([γGlu-γGlu-γGlu-C17 diacid])DR[Aib]AQ[Aib]NFVNWLLAQSPSSGAPPPS-NH2) as the compound, how does the solubility [1] read?
Answer: ≥ 30 mg/mL

Question: And the solubility [2]?
Answer: ≥ 15 mg/mL

Question: Which solubility [1] does the source give for `CC[C@H](C)[C@H](NC(=O)[C@H](Cc1ccccc1)NC(=O)[C@@H](NC(=O)CNC(=O)[C@H](CCC(=O)O)NC(=O)C(C)(C)NC(=O)[C@H](Cc1ccc(O)cc1)NC)[C@@H](C)O)C(=O)N[C@@H](CO)C(=O)N[C@@H](CC(=O)O)C(=O)N[C@@H](Cc1ccc(O)cc1)C(=O)N[C@@H](CO)C(=O)N[C@H](C(=O)NC(C)(C)C(=O)N[C@@H](CCCCNC(=O)COCCOCCNC(=O)COCCOCCNC(=O)CC[C@H](NC(=O)CC[C@H](NC(=O)CCCCCCCCCCCCCCCC(=O)O)C(=O)O)C(=O)O)C(=O)N[C@@H](CC(=O)O)C(=O)N[C@@H](CCCNC(=N)N)C(=O)NC(C)(C)C(=O)N[C@@H](C)C(=O)N[C@@H](CCC(N)=O)C(=O)NC(C)(C)C(=O)N[C@@H](CC(N)=O)C(=O)N[C@@H](Cc1ccccc1)C(=O)N[C@H](C(=O)N[C@@H](CC(N)=O)C(=O)N[C@@H](Cc1c[nH]c2ccccc12)C(=O)N[C@@H](CC(C)C)C(=O)N[C@@H](CC(C)C)C(=O)N[C@@H](C)C(=O)N[C@@H](CCC(N)=O)C(=O)N[C@@H](CCCNC(=N)N)C(=O)N1CCC[C@H]1C(=O)N[C@@H](CO)C(=O)N[C@@H](CO)C(=O)NCC(=O)N[C@@H](C)C(=O)N1CCC[C@H]1C(=O)N1CCC[C@H]1C(=O)N1CCC[C@H]1C(=O)N[C@@H](CO)C(N)=O)C(C)C)[C@@H](C)CC` [Compound 14] (H-[NMeY][Aib]EGTFISDYSI[Aib]K([AEEA-AEEA-γGlu-γGlu-C17 diacid])DR[Aib]AQ[Aib]NFVNWLLAQRPSSGAPPPS-NH2) here?
Answer: ≥ 30 mg/mL

Question: What about the solubility [2] of the same compound?
Answer: ≥ 15 mg/mL

Question: With `CC[C@H](C)[C@H](NC(=O)[C@H](CO)NC(=O)[C@H](Cc1ccc(O)cc1)NC(=O)[C@H](CC(=O)O)NC(=O)[C@H](CO)NC(=O)[C@@H](NC(=O)[C@H](Cc1ccccc1)NC(=O)[C@@H](NC(=O)CNC(=O)[C@H](CCC(=O)O)NC(=O)C(C)(C)NC(=O)[C@H](Cc1ccc(O)cc1)NC)[C@@H](C)O)[C@@H](C)CC)C(=O)N[C@@H](C)C(=O)N[C@@H](CC(C)C)C(=O)N[C@@H](CC(=O)O)C(=O)N[C@@H](CCCNC(=N)N)C(=O)NC(C)(C)C(=O)N[C@@H](CCCCNC(=O)COCCOCCNC(=O)COCCOCCNC(=O)CC[C@H](NC(=O)CC[C@H](NC(=O)CCCCCCCCCCCCCCCCC(=O)O)C(=O)O)C(=O)O)C(=O)N[C@@H](CCC(N)=O)C(=O)NC(C)(C)C(=O)N[C@@H](CC(N)=O)C(=O)N[C@@H](Cc1ccccc1)C(=O)N[C@H](C(=O)N[C@@H](CC(N)=O)C(=O)N[C@@H](Cc1c[nH]c2ccccc12)C(=O)N[C@@H](CC(C)C)C(=O)N[C@@H](CC(C)C)C(=O)N[C@@H](C)C(=O)N[C@@H](CCC(N)=O)C(=O)N[C@@H](CCCNC(=N)N)C(N)=O)C(C)C` [Compound 17] (H-[NMeY][Aib]EGTFISDYSIALDR[Aib]K([AEEA-AEEA-γGlu-γGlu-C18 diacid])Q[Aib]NFVNWLLAQR-NH2) as the compound, how does the solubility (pH 7.4) read?
Answer: ≥ 15 mg/mL

Question: And the solubility (pH 7.4, aqueous buffer)?
Answer: ≥ 30 mg/mL

Question: For `CC[C@H](C)[C@H](NC(=O)[C@H](CO)NC(=O)[C@H](Cc1ccc(O)cc1)NC(=O)[C@H](CC(=O)O)NC(=O)[C@H](CO)NC(=O)[C@@H](NC(=O)[C@H](Cc1ccccc1)NC(=O)[C@@H](NC(=O)CNC(=O)[C@H](CCC(=O)O)NC(=O)C(C)(C)NC(=O)[C@H](Cc1ccc(O)cc1)NC)[C@@H](C)O)[C@@H](C)CC)C(=O)N[C@@H](C)C(=O)N[C@@H](CC(C)C)C(=O)N[C@@H](CC(=O)O)C(=O)N[C@@H](CCCNC(=N)N)C(=O)NC(C)(C)C(=O)N[C@@H](Cc1c[nH]cn1)C(=O)N[C@@H](CCC(N)=O)C(=O)NC(C)(C)C(=O)N[C@@H](CCCCNC(=O)COCCOCCNC(=O)COCCOCCNC(=O)CC[C@H](NC(=O)CC[C@H](NC(=O)CCCCCCCCCCCCCCCCC(=O)O)C(=O)O)C(=O)O)C(=O)N[C@@H](Cc1ccccc1)C(=O)N[C@H](C(=O)N[C@@H](CC(N)=O)C(=O)N[C@@H](Cc1c[nH]c2ccccc12)C(=O)N[C@@H](CC(C)C)C(=O)N[C@@H](CC(C)C)C(=O)N[C@@H](C)C(=O)N[C@@H](CCC(N)=O)C(=O)N[C@@H](CCCNC(=N)N)C(N)=O)C(C)C` [Compound 18] (H-[NMeY][Aib]EGTFISDYSIALDR[Aib]HQ[Aib]K([AEEA-AEEA-γGlu-γGlu-C18 diacid])FVNWLLAQR-NH2), which solubility (pH 7.4) is on record?
Answer: ≥ 15 mg/mL

Question: What about the solubility (pH 7.4, aqueous buffer) of the same compound?
Answer: ≥ 30 mg/mL

Question: Which solubility [1] does the source give for `CC[C@H](C)[C@H](NC(=O)[C@H](CO)NC(=O)[C@H](Cc1ccc(O)cc1)NC(=O)[C@H](CC(=O)O)NC(=O)[C@H](CO)NC(=O)[C@@H](NC(=O)[C@H](Cc1ccccc1)NC(=O)[C@@H](NC(=O)CNC(=O)[C@H](CCC(=O)O)NC(=O)C(C)(C)NC(=O)[C@H](Cc1ccc(O)cc1)NC)[C@@H](C)O)[C@@H](C)CC)C(=O)N[C@@H](C)C(=O)N[C@@H](CC(C)C)C(=O)N[C@@H](CC(=O)O)C(=O)N[C@@H](CCCNC(=N)N)C(=O)N[C@@H](CCCCNC(=O)CNC(=O)CNC(=O)CNC(=O)CNC(=O)CNC(=O)CC[C@H](NC(=O)CCCCCCCCCCCCCCCC(=O)O)C(=O)O)C(=O)N[C@@H](Cc1c[nH]cn1)C(=O)N[C@@H](CCC(N)=O)C(=O)NC(C)(C)C(=O)N[C@@H](CC(N)=O)C(=O)N[C@@H](Cc1ccccc1)C(=O)N[C@H](C(=O)N[C@@H](CC(N)=O)C(=O)N[C@@H](Cc1c[nH]c2ccccc12)C(=O)N[C@@H](CC(C)C)C(=O)N[C@@H](CC(C)C)C(=O)N[C@@H](C)C(=O)N[C@@H](CCC(N)=O)C(=O)N[C@@H](CCCNC(=N)N)C(=O)N1CCC[C@H]1C(=O)N[C@@H](CO)C(=O)N[C@@H](CO)C(=O)NCC(=O)N[C@@H](C)C(=O)N1CCC[C@H]1C(=O)N1CCC[C@H]1C(=O)N1CCC[C@H]1C(=O)N[C@@H](CO)C(=O)O)C(C)C` [Compound 20] here?
Answer: ≥ 15 mg/mL

Question: What does the source list for `CC[C@H](C)[C@H](NC(=O)[C@H](CO)NC(=O)[C@H](Cc1ccc(O)cc1)NC(=O)[C@H](CC(=O)O)NC(=O)[C@H](CO)NC(=O)[C@@H](NC(=O)[C@H](Cc1ccccc1)NC(=O)[C@@H](NC(=O)CNC(=O)[C@H](CCC(=O)O)NC(=O)C(C)(C)NC(=O)[C@H](Cc1ccc(O)cc1)NC)[C@@H](C)O)[C@@H](C)CC)C(=O)N[C@@H](C)C(=O)N[C@@H](CC(C)C)C(=O)N[C@@H](CC(=O)O)C(=O)N[C@@H](CCCNC(=N)N)C(=O)NC(C)(C)C(=O)N[C@@H](C)C(=O)N[C@@H](CCC(N)=O)C(=O)NC(C)(C)C(=O)N[C@@H](CCCCNC(=O)COCCOCCNC(=O)COCCOCCNC(=O)CC[C@H](NC(=O)CC[C@H](NC(=O)CCCCCCCCCCCCCCCCC(=O)O)C(=O)O)C(=O)O)C(=O)N[C@@H](Cc1ccccc1)C(=O)N[C@H](C(=O)N[C@@H](CC(N)=O)C(=O)N[C@@H](Cc1c[nH]c2ccccc12)C(=O)N[C@@H](CC(C)C)C(=O)N[C@@H](CC(C)C)C(=O)N[C@@H](C)C(=O)N[C@@H](CCC(N)=O)C(=O)N[C@@H](CCCNC(=N)N)C(=O)NCC(=O)NCC(=O)NCC(=O)NCC(=O)N[C@@H](CO)C(N)=O)C(C)C` [Compound 21] (H-[NMeY][Aib]EGTFISDYSIALDR[Aib]AQ[Aib]K([AEEA-AEEA-γGlu-γGlu-C18 diacid])FVNWLLAQRGGGGS-NH2)?
Answer: solubility (pH 7.4): ≥ 15 mg/mL; solubility (pH 7.4, aqueous buffer): ≥ 30 mg/mL

Question: What does the source list for `CC[C@H](C)[C@H](NC(=O)[C@H](CO)NC(=O)[C@H](Cc1ccc(O)cc1)NC(=O)[C@H](CC(=O)O)NC(=O)[C@H](CO)NC(=O)[C@@H](NC(=O)[C@H](Cc1ccccc1)NC(=O)[C@@H](NC(=O)CNC(=O)[C@H](CCC(=O)O)NC(=O)C(C)(C)NC(=O)[C@H](Cc1ccc(O)cc1)NC)[C@@H](C)O)[C@@H](C)CC)C(=O)N[C@@H](C)C(=O)N[C@@H](CCCCNC(=O)CNC(=O)CNC(=O)CNC(=O)CNC(=O)CNC(=O)CC[C@H](NC(=O)CCCCCCCCCCCCCCCC(=O)O)C(=O)O)C(=O)N[C@@H](CC(=O)O)C(=O)N[C@@H](CCCNC(=N)N)C(=O)NC(C)(C)C(=O)N[C@@H](C)C(=O)N[C@@H](CCC(N)=O)C(=O)NC(C)(C)C(=O)N[C@@H](CC(=O)O)C(=O)N[C@@H](Cc1ccccc1)C(=O)N[C@H](C(=O)N[C@@H](CC(N)=O)C(=O)N[C@@H](Cc1c[nH]c2ccccc12)C(=O)N[C@@H](CC(C)C)C(=O)N[C@@H](CC(C)C)C(=O)N[C@@H](C)C(=O)N[C@@H](CCC(N)=O)C(=O)N[C@@H](CCCNC(=N)N)C(=O)N1CCC[C@H]1C(=O)N[C@@H](CO)C(=O)N[C@@H](CO)C(=O)NCC(=O)N[C@@H](C)C(=O)N1CCC[C@H]1C(=O)N1CCC[C@H]1C(=O)N1CCC[C@H]1C(=O)N[C@@H](CO)C(N)=O)C(C)C` [Compound 22]?
Answer: solubility [1]: ≥ 30 mg/mL; solubility [2]: ≥ 15 mg/mL
